Measured values taken from patent EP1858912B1, “COMPOUNDS FOR REDUCING AGGREGATION OF AMYLOID BETA-PEPTIDE” (Alphabeta AB, priority 2005, dated 2012).
Where a SMILES comes first, the peptide text is derived from it. Bridges are numbered along the chain shown (N, C = ends). Roman numbers before positions name the chains, in order. [ ]: non-standard residue; d: D form. Dab = NCC[C@H](N)C(=O)O

Key:
[1] = tested on: Drosophila melanogaster express Aβ1-42 in neurons; experiment: Longevity in Drosophila model of Alzheimer's disease; type: in vivo
Text: A model of Alzheimer's disease was used in which Drosophila melanogaster express Aβ1-42 in neurons (Crowther et al., 2005, Neuroscience 132:123-135).

Aβ(12-28) [2] = experiment: Circular dichroism spectroscopy of Aβ secondary structure; type: biochemical; conditions: 1:1 molar ratio, sodium phosphate buffer pH 7, 30% (v/v) trifluoroethanol, 20°C; compared with Aβ(12-28) alone; ligand spectrum subtracted
Experimental: Compounds described herein can be tested for their ability to affect the secondary structure of an Aβ peptide. As an example, addition of ligands to Aβ(1-40) or Aβ(12-28) in solution increased the helical content of Aβ peptides, as measured by circular dichroism (CD) spectroscopy. This is evidenced by a decrease in molar ellipticity at 208 and 222 nm, and an increase in molar ellipticity at 190-195 nm (an example is shown in Fig. 6). In these experiments, Aβ peptides (concentration about 20 µM to 100 µM) were mixed with ligands in ligand/Aβ molar ratios ranging between 1 and 10. The measurements were performed in phosphate buffer (as described below for thioflavin T measurements) or in phosphate buffer containing 30% trifluoroethanol. The samples were incubated at 37°C with or without shaking before measurements. CD measurements were performed at room temperature in a Jasco 810 instrument using a 1 mm cuvette (sample volume 200-300 µl). For each sample, three spectra were accumulated. Spectra were measured between 260 and 185 nm, and the spectra of buffer and ligands alone were subtracted from the spectra of the mixtures. Molar ellipticity values were calculated using the recorded spectra and the peptide concentrations, and expressed in kdeg x cm^2/dmol. […]

[3] = tested on: wild type Drosophila (WIII8) that do not express Aβ(1-42); experiment: Longevity in control flies not expressing Aβ; type: in vivo; conditions: 650 µM in the food; control flies not expressing Aβ (Fig. 13)
Aβ(1-40) [4] = experiment: Thioflavin T fluorescence assay of Aβ fibril formation; type: biochemical
Experimental: Fibril formation of Aβ(1-40) or Aβ(12-28) with and without the presence of the ligands was assessed by the fibril-binding dye thioflavin T (ThT). Solutions containing Aβ peptides in concentrations from about 20 µM to 200 µM without ligand present, or at different peptide/ligand ratios were prepared in 10 mM sodium phosphate buffer, pH 7. The samples were incubated at 37°C under constant gentle shaking. At different time points aliquots were removed and ThT measurements performed using 10 µM ThT in 10 mM sodium phosphate buffer, pH 6, containing 150mMNaCl.
The samples were incubated for 10-15 minutes in the dark before ThT fluorescence measurements were made. Fluorescence was measured using a FarCyte™ (Tecan) instrument with excitation at 440 nm and emission at 480 nm. All samples were measured in duplicates.

Aβ(1-40) [5] = experiment: Tryptophan fluorescence emission of ligand (binding to Aβ); conditions: excitation 280 nm; for emission maximum: sodium phosphate buffer pH 7, 30% (v/v) trifluoroethanol, 20°C
Experimental: (§1) In these experiments, shifts in fluorescence emission were used to indicate binding. In these experiments, ligand 3 (about 10 µM) was dissolved in sodium phosphate buffer, pH 7, with or without trifluoroethanol present. Fluorescence was measured in a Hitachi F-4000 spectrophotometer, and emission was measured between 300 and 430 nm after excitation at 280 nm.
(§2) When Aβ(1-40) or Aβ(12-28) was added to a solution containing ligand 3, the fluorescence yield was increased (e.g., Fig 7) and the wavelength at maximum emission was shifted from about 348 nm to 344 nm.

Aβ(12-28) [6] = experiment: as above; conditions: after addition of Aβ(12-28); excitation 280 nm
Experimental: as §1, §2

## CC(=O)N[C@H](CCC(=O)O)C(=O)N[C@@H](CCNC(=O)[C@@H](Cc1c[nH]c2ccccc12)NC(=O)[C@@H](N)CCCNC(=N)N)C(=O)O [ligand 3, Ac-D-Glu-Dab(Arg-D-Trp)] (I: H-Arg-[dW] / II: Ac-[dE]-[Dab]-OH; amide I:C-II:2)
[1]; 134 µM in the food, 29°C and high humidity (Fig. 12)
  mean survival time: increased the mean survival time
[1]; 650 µM in the food, 28°C and low humidity, p=0.0035 (Fig. 11)
  mean survival time: prolonged mean survival time
[1]; fed from the larval stage, compared to untreated flies, two different experimental conditions
  longevity: significant increase in longevity
Aβ(12-28) [2]
  circular dichroism spectra: lowest value at 222 nm and highest value at 195 nm
[3]
  effects on mean survival (longevity): absence of a statistically significant difference
Aβ(1-40) [4]; 1:1 ligand/peptide molar ratio, 1.5 hours at 37°C (Fig. 9)
  Aβ(1-40) fibril formation, as measured by ThT binding: effective in reducing Aβ(1-40) fibril formation
Aβ(1-40) [4]; different periods of incubation at 37°C, 10 mM sodium phosphate pH 7, 5:1 or 10:1 ligand/Aβ molar ratio (Fig. 8)
  ThT fluorescence induced by Aβ(1-40): practically abolished
Aβ(1-40) [4]; ligand/Aβ ratio 5, compared with 1:1, 1.5 hours at 37°C (Fig. 9)
  ThT fluorescence: further reduction of ThT fluorescence
Aβ(1-40) [4]; ligand/Aβ ratio 10, 1.5 hours at 37°C (Fig. 9)
  ThT fluorescence: approximately the same result as a ligand/Aβ ratio of 5
Aβ(1-40) [5]; after addition of Aβ(1-40)
  fluorescence yield: increased
  wavelength at maximum emission: 344 nm
Aβ(1-40) [5]; complex with Aβ(1-40), 1:1 molar ratio
  emission maximum: 344 nm
Aβ(1-40) [5]; ligand about 10 µM before addition of Aβ
  wavelength at maximum emission: about 348 nm
Aβ(1-40) [5]; ligand only
  emission maximum: 348 nm
Aβ(12-28) [6]
  fluorescence yield: increased
  wavelength at maximum emission: 344 nm
